Consider eleven compounds from patent US10668061B2, “Mouse with D4R iRNA in the intercalating cell mass of the amygdala” (POSTECH ACADEMY-INDUSTRY FOUNDATION, priority 2016, dated 2020).

The subject of test [1] is dorsal ITC neurons. The test can be described thus: STDP-induced DA-dependent LTD (DA-LTD) in dorsal ITC neurons, amygdala slice whole-cell recordings. Format: cell-based, mice. Conditions: for effect on DA-LTD: STDP protocol in presence of DA, antagonists in optimal concentrations selective for each receptor, naive mice; for induction of LTD at the dorsal ITC by receptor agonist: STDP protocol, agonist in place of DA.

In test [2] the test system is dorsal ITC neurons. The test can be described thus: STDP-induced LTD in dorsal ITC in amygdala slices after weak fear conditioning. The class given is cell-based, mice. Conditions: for induction of LTD after weak fear conditioning: wild-type mice, slices after weak fear conditioning, drug applied to slices. The method, then:
(§1) Fear conditioning trainings were conducted in context A within sound-attenuating conditions (Panlab, Spain). Tone CS (conditioned stimulus) was delivered with a speaker while electric foot shock US (unconditioned stimulus) was applied through a floor grid attached to a shock generator (Panlab). The chambers were also equipped with infrared webcams connected to a personal computer to store animal behavior. Mice were placed in the context A for 2 minutes of acclimation and were then presented with auditory tone (CS: 3 kHz, 80 dB for 30 sec) that were co-terminated with electric foot shocks (US: 0.4 or 0.8 mA for 0.5 sec). Total 8 CS-US pairs were presented in pseudorandom intertrial intervals (varied from 60 to 120 sec). 24 hours after fear conditioning, mice were placed in context B to assess the recall of fear memory by being re-exposed to CS, but without US for 2 minutes.
(§2) To compare mPSCs without or after STDP, KCl-based and K-gluconate-based internal solutions were used for recording mIPSCs and mEPSCs, respectively. K-gluconate based solution was also used to record EPSCs and IPSCs evoked by interleaved stimulation. Series resistance (10-30 MΩ) was monitored throughout all experiments. mEPSCs were recorded at −70 mV holding potential in the presence of 1 μM tetrodotoxin (TTX) and 100 μM picrotoxin (Tocris, UK) while mIPSCs were measured at −70 mV in the presence of 1 μM TTX, 25 μM NBQX, and 50 μM 2-amino-5-phosphonovaleric acid (APV, Tocris). Miniature PSCs were analyzed with MiniAnalysis (Synaptosoft, Fort Lee, N.J.) or Clampfit 10.1 software (Molecular Devices). For PSC recordings with interleaved stimulation, the holding potential was briefly (˜40 ms) changed from −70 mV to +10 mV to reach the reversal potential of EPSC for isolation of putative IPSCs. For STDP experiments, stimulus intensity was adjusted to elicit EPSPs displaying 25%-30% of the maximum amplitudes. […]

The subject of test [3] is dorsal ITC neurons. The test can be described thus: STDP in dorsal ITC neurons of naive slices with or without GABAA receptor blockade. The note with it: +4- and +6-ms interval delays; not in absence of picrotoxin. Format: cell-based, mice. The method, then: as §2, with “amplitudes. After obtaining stable baseline recording, 80 presynaptic stimuli were delivered at 2 Hz via metal stimulating electrode placed in LA while paired with action potentials induced by injection of depolarizing current to postsynaptic neurons. Quantal contents were estimated by obtaining the inverse square of the coefficient of variation (1/CV^2). […].” for “amplitudes.”

The next test has as its target T1, D4R at the dorsal ITC (Mus musculus, UniProt P51436).
T1 construct: endogenous in cells; host or cells: neurons of the mouse brain in vivo (dorsal ITC of the amygdala); mice from Jackson Laboratory
T1 sequence (P51436 1-387): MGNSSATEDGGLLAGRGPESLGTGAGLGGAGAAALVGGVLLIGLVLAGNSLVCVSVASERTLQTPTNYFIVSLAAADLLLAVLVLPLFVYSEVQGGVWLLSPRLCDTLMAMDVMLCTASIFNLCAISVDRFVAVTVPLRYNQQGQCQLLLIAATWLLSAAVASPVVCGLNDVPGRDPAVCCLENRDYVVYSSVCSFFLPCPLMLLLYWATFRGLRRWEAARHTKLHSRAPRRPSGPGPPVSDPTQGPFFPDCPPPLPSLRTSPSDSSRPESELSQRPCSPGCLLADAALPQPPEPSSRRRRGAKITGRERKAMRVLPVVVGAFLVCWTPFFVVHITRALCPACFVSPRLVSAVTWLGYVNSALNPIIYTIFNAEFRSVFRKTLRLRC
The test can be described thus: Weak fear conditioning after bilateral drug infusion into the dorsal ITC (freezing). Format: in vivo, mice. The note with it: 500 nM, 0.5 μl bilaterally into dorsal ITC 20 minutes before fear conditioning; vs vehicle. On the procedure: Guide cannulae were implanted bilaterally (26 gauge, Plastics One, Roanoke, Va.) aimed into the dorsal ITC areas in the coordinates, AP−1.4 mm, ML±3.2 mm, DV−4.2 mm from the bregma, and were fixed in the skull with dental cement. The cannulae remained capped with internal dummy cannulae (33 gauges, Plastics One) after surgery. Animals were individually housed and allowed to recover at least for 1 week after surgery. The mice bilaterally received 0.5 μl of either L-745870 or vehicle through the injection cannula (33 gauge, Plastics One) connected to a 10-μl Hamilton syringe for 5 minutes at a rate of 0.1 μl/min using microinfusion pump (Harvard Apparatus, Holliston, Mass.) 20 minutes before fear conditioning. L-745870 was dissolved to 500 nM in 0.9% saline just before the infusion. Mice were kept with injector cannulae for additional 5 minutes after the end of infusion and then were subjected to fear conditioning. […] The subject mice were transcardially perfused right after the last behavioral tests and analyzed for the injection loci. […]
If DA-LTD at the dorsal ITC is a synaptic mechanism that regulates neural circuits conveying fear memory, manipulation of D4R activity or synaptic plasticity at the dorsal ITC should affect fear memory. […] We injected either vehicle or L-745870 bilaterally into the dorsal ITC areas and then assessed acquisition and expression of fear memory (FIG. 5A).

In test [4] the test system is dorsal ITC neurons.
Another test has as its system ITC neurons. The test can be described thus: Paired recording of unitary IPSCs (uIPSCs) between synaptically coupled ITC neurons.
For test [5], the system named is mice that underwent weak fear conditioning. Briefly: Corticosterone-induced PTSD-like memory impairment after weak fear conditioning (freezing). Format: in vivo. Conditions: CORT 5 mg/kg i.p. The method, then: as §1, with “minutes. […]” for “minutes.”
To assess contextual fear memory from cue conditioned animals, the mice were placed again in context A 2 hours after termination of the first recall test and then duration of freezing was measured for 2 minutes without presentation of the auditory cue. The mice were placed in context B 2 hours after termination of the first recall test and the freezing time during presentation of the auditory cue was measured for 2 minutes.

Test [6] has as its system dorsal ITC neurons. Briefly: Disynaptic IPSP input-output curves in dorsal ITC of CORT-treated mice. The class given is cell-based. Conditions: vehicle-treated significantly increased. On the procedure: To induce PTSD-like memory impairment, corticosterone (CORT, 5 mg/kg) or vehicle (saline, 0.9% NaCl) was intraperitoneally (i.p.) injected immediately after fear conditioning as previously described. The cue-conditioning group underwent weak fear conditioning with the previously-described CS-US pairing paradigm in context A and was tested for fear recall toward the cue in context B at the next day.
To obtain mechanistic insights into the LTD impairment, we constructed the input-output curves of evoked disynaptic IPSPs. […] Thus, the LTD deficit in CORT-treated mice appears to result from the impaired augmentation of inhibitory inputs to the dorsal ITC neurons.

`CC#C[C@]1(O)CC[C@H]2[C@@H]3CCC4=CC(=O)CCC4=C3[C@@H](c3ccc(N(C)C)cc3)C[C@@]21C` [RU38486]: in the test on dorsal ITC neurons [1], the “effect on DA-LTD” value is “blocked”. Besides, the “induction of LTD after weak fear conditioning” value with dorsal ITC neurons [2] is “blocked”.
For picrotoxin, in the test with dorsal ITC neurons [3], the “synaptic plasticity by STDP in presence of GABAA receptor antagonist” value is “LTP”.
As for `Clc1ccc(N2CCN(Cc3c[nH]c4ncccc34)CC2)cc1` [L-745870], in the test on dorsal ITC neurons [1], the “effect on DA-LTD” value is “abolished DA-LTD”. Moreover, the “induction of LTD after weak fear conditioning” value with dorsal ITC neurons [2] is “interfered with the induction of LTD”. On D4R at the dorsal ITC, the “freezing at 24 hr after weak fear conditioning” value is “significantly higher levels of freezing” and the “freezing levels during acquisition” value is listed as “comparable freezing levels”.
Consider `CCCN1CCO[C@@H]2c3cc(O)ccc3OC[C@H]21` [PD-128907], for which the “induction of LTD at the dorsal ITC by receptor agonist” value (from here on “induction of LTD at the dorsal ITC”) in the test with dorsal ITC neurons [1] is reported as “did not”.
Take `NCCc1ccc(O)c(O)c1` [DA, Dopamine]: the “induction of LTD by the STDP protocol in the presence of DA” value in the test on dorsal ITC neurons [1] (DA 30 mM) is reported as “LTD was readily induced”. Besides, the “changes in resting membrane potentials (RMPs) and excitability” value with dorsal ITC neurons [4] (DA 30 mM, before and after application) is given as “negligible changes”. Moreover, in the test on dorsal ITC neurons [4] (bath application of DA alone, no STDP), the “synaptic transmission on bath application alone” value is “did not alter synaptic transmission”.
As to `Nc1nc2c(ncn2[C@@H]2O[C@H](COP(=O)(O)OP(O)(O)=S)[C@@H](O)[C@H]2O)c(=O)[nH]1` [GDPβS], the “LTD-induced increment of uIPSC amplitude, infused into postsynaptic ITC neurons” value in the test with ITC neurons (GDPβS 0.5 mM in internal solution, postsynaptic neuron) is “not”. The “LTD-induced increment of uIPSC amplitude, infused into presynaptic ITC neurons” value in the test on ITC neurons (GDPβS 0.5 mM in internal solution, presynaptic neuron) is recorded as “blocked”.
As to `COc1ccccc1N1CCN(CCCCNC(=O)c2ccc(-c3ccc(C(C)=O)cc3)cc2)CC1` [GR-103691], the “effect on DA-LTD” value in the test on dorsal ITC neurons [1] is recorded as “did not affect DA-LTD”.
Consider `OC1(c2ccc(Cl)cc2)CCN(Cc2c[nH]c3ccccc23)CC1` [L-741626], for which the “effect on DA-LTD” value in the test with dorsal ITC neurons [1] is reported as “did not affect DA-LTD”.
Take `Cc1cccc(C(=O)NCN2CCN(c3ccccc3C#N)CC2)c1` [PD-168077, N-([4-(2-cyanophenyl)piperazine-1-yl]methyl)-3-methylbenzamide]: the “induction of LTD at the dorsal ITC” value in the test on dorsal ITC neurons [1] is listed as “allowed for the induction of LTD”. Also, in the test on ITC neurons (current injection to postsynaptic ITC neurons while stimulating LA in presence of PD-168077), the “amplitude of uIPSCs when LTD was induced” value was “markedly increased”.
As to `Oc1cc2c(cc1O)C(c1ccccc1)CNCC2` (stereo not shown) [SKF-38393], in the test with dorsal ITC neurons [1], the “induction of LTD at the dorsal ITC” value is “did not”.
As to `C[C@]12C[C@H](O)[C@H]3[C@@H](CCC4=CC(=O)CC[C@@]43C)[C@@H]1CC[C@@H]2C(=O)CO` [CORT, corticosterone], the “induction of LTD in dorsal ITC of CORT-treated mice” value in the test on dorsal ITC neurons [2] (CORT 5 mg/kg i.p. after conditioning, regardless of fear conditioning) is “LTD could not be triggered”. In addition, the “freezing to the context after cue conditioning only” value in test [5] is “increased freezing levels”. In test [5] (vs vehicle-injected, cue or context pairing), the “freezing to the conditioned cue 24 hr after weak fear conditioning” value was “higher freezing levels”. The “disynaptic IPSPs after weak fear conditioning” value with dorsal ITC neurons [6] is given as “not altered”.
